Experimental data taken from patent US20060263802A1 (priority 2003, published 2006).

Experiments:
Format in all cases: binding
[1] = test system: human monoclonal antibody CRJB
[2] = test system: human monoclonal antibody CR57
[3] = test system: human monoclonal antibody CRJA
[4] = test system: human monoclonal antibody CRJB; remark: listed apart in the source
[5] = test system: human monoclonal antibody CR57; remark: listed apart in the source
[6] = test system: human monoclonal antibody CRJA; remark: listed apart in the source

Sequence | Binding of CRJB to linear peptide (PEPSCAN-ELISA signal) [1] | Binding of CR57 to linear peptide (PEPSCAN-ELISA signal) [2] | Binding of CRJA to linear peptide (PEPSCAN-ELISA signal) [3] | Binding of CRJB (10 μg/ml) to looped/cyclic peptide (PEPSCAN-ELISA) [4] | Binding of CR57 (10 μg/ml) to looped/cyclic peptide (PEPSCAN-ELISA) [5] | Binding of CRJA (10 μg/ml) to looped/cyclic peptide (PEPSCAN-ELISA) [6] | Binding of CRJB (10 μg/ml) to looped/cyclic peptide (PEPSCAN-ELISA signal) [4] | Binding of CR57 (10 μg/ml) to looped/cyclic peptide (PEPSCAN-ELISA signal) [5] | Binding of CRJA (10 μg/ml) to looped/cyclic peptide (PEPSCAN-ELISA signal) [6] | Binding of human monoclonal antibody CRJB to linear peptide (PEPSCAN-ELISA signal) [1] | Binding of human monoclonal antibody CR57 to linear peptide (PEPSCAN-ELISA signal) [2] | Binding of human monoclonal antibody CRJA to linear peptide (PEPSCAN-ELISA signal) [3] | Binding of CRJB to looped/cyclic peptide (PEPSCAN-ELISA signal) [4] | Binding of CR57 to looped/cyclic peptide (PEPSCAN-ELISA signal) [5] | Binding of CRJA to looped/cyclic peptide (PEPSCAN-ELISA signal) [6] | binding of antibody CRJA to looped/cyclic peptide (PEPSCAN OD) [6]
TTKSVSFRRLSHLRK | 118 | 66 | 94 | 72 | 92 | 97 | – | – | – | – | – | – | – | – | – | –
HLVVEELVRKREECL | 123 | 82 | 111 | 105 | 110 | 110 | – | – | – | – | – | – | – | – | – | –
HPHVNGVFFNGIILG | 138 | 104 | 89 | 99 | 104 | 91 | – | – | – | – | – | – | – | – | – | –
EELVRKREECLDALE | 112 | 69 | 118 | 2 | 79 | 104 | – | – | – | – | – | – | – | – | – | –
CPPDQLVNLHDFRSD | 137 | 93 | 115 | 123 | 137 | 92 | – | – | – | – | – | – | – | – | – | –
CPNNLVVEDEGCTNL | 97 | 77 | 75 | – | – | – | 54 | 79 | 84 | – | – | – | – | – | – | –
DACRAAYNWKMAGDP | 113 | 84 | 83 | – | – | – | 77 | 133 | 110 | – | – | – | – | – | – | –
ILDKLGPWSPIDIHH | 104 | 54 | 56 | – | – | – | 46 | 80 | 71 | – | – | – | – | – | – | –
SRVFPSGKCSGVAVS | 125 | 100 | 107 | – | – | – | 89 | 112 | 92 | – | – | – | – | – | – | –
YILAIKMNGFTCTGV | 107 | 47 | 45 | – | – | – | 49 | 55 | 45 | – | – | – | – | – | – | –
VHNQVSGVDLGLPNW | – | – | – | – | – | – | – | – | – | 119 | 100 | 120 | 106 | 125 | 106 | –
LMEADAHYKSVRTWN | 107 | 73 | 46 | 72 | 41 | 43 | – | – | – | – | – | – | – | – | – | –
DGDEAEDFVEVHLPD | – | – | – | – | – | – | – | – | – | 123 | 85 | 97 | 102 | 71 | 71 | –
ILGPDGNVLIPEMQS | 134 | 125 | 90 | 92 | 143 | 100 | – | – | – | – | – | – | – | – | – | –
FFNGIILGPDGNVLI | 143 | 92 | 119 | 96 | 72 | 100 | – | – | – | – | – | – | – | – | – | –
STYCSTNHDYTIWMP | 99 | 86 | 79 | – | – | – | 82 | 90 | 90 | – | – | – | – | – | – | –
EAENYTNFVGYVTTT | 117 | 69 | 62 | – | – | – | 60 | 55 | 54 | – | – | – | – | – | – | –
DPYDRSLHSRVFPSG | 120 | 90 | 92 | – | – | – | 71 | 106 | 186 | – | – | – | – | – | – | clearly bound
RTWNEILPSKGCLRV | 127 | 120 | 97 | 93 | 107 | 102 | – | – | – | – | – | – | – | – | – | –
GYILAIKMNGFTCTG | 90 | 75 | 73 | – | – | – | 61 | 87 | 72 | – | – | – | – | – | – | –
AENYTNFVGYVTTTF | 106 | 66 | 74 | – | – | – | 68 | 58 | 46 | – | – | – | – | – | – | –
KVGYILAIKMNGFTC | 118 | 78 | 83 | – | – | – | 64 | 96 | 71 | – | – | – | – | – | – | –
AYNWKMAGDPRYEES | 94 | 96 | 90 | – | – | – | 77 | 96 | 72 | – | – | – | – | – | – | –
EDEGCTNLSGFSYME | 90 | 54 | 65 | – | – | – | 68 | 76 | 54 | – | – | – | – | – | – | –
CDIFTNSRGKRASKG | 104 | 42 | 133 | – | – | – | 90 | 1 | 101 | – | – | – | – | – | – | –
MSCDIFTNSRGKRAS | 110 | 46 | 71 | – | – | – | 73 | 71 | 49 | – | – | – | – | – | – | –
VGGRCHPHVNGVFFN | 136 | 120 | 92 | 64 | 143 | 106 | – | – | – | – | – | – | – | – | – | –
SLHNPYPDYRWLRTV | 111 | 78 | 87 | – | – | – | 90 | 104 | 99 | – | – | – | – | – | – | –
YMELKVGYILAIKMN | 114 | 78 | 96 | – | – | – | 83 | 93 | 76 | – | – | – | – | – | – | –
